Measurements: patent US20240084258A1, “METHOD FOR PREPARING BROWN ADIPOCYTE” (KYOTO PREFECTURAL PUBLIC UNIVERSITY CORPORATION, priority 2015, published 2024)

Assays:
Type in all cases: cell-based
[1] = tested on: human dermal fibroblasts (HDFs); experiment: Oil Red O staining of fibroblasts cultured with compounds (Example 1); conditions: adipocyte induction medium with T3 1 nM and Rosiglitazone 1 μM, D4476 2 μM, SB431542 2 μM, ALK5 Inhibitor II 2 M, Pifithrin alpha 5 μM, day 14, FIG. 1
Method: The next day, the culture supernatant was removed by suction and, as described in the Figure, a normal medium, an adipocyte induction medium, or an adipocyte induction medium added with the compound and the like was added at 500 μL/well.
The adipocyte induction medium is a 10% FBS-added DMEM+MDI medium (10% FBS-added DMEM supplemented with 0.5 mM isobutylmethylxanthine (IBMX), 0.5 μM dexamethason and 1 μg/mL Insulin).
The concentrations of the additives are as follows: • T3: 1 nM • Rosiglitazone: 1 μM • D4476: 2 μM • Pifithrin alpha [p53 inhibitor]: 5 μM • SB431542: 2 μM • ALK5 Inhibitor II: […].
The culture medium was substituted by a fresh one every 3-4 days and the cells were cultured up to day 14.
After washing 3 times with sterile distilled water, Oil Red O staining solution was added, and the mixture was incubated at room temperature for 15 min. Then, the cells were washed with sterile distilled water and photographed at a magnification of 100 with a phase contrast microscope.

[2] = tested on: human dermal fibroblasts (HDFs); experiment: CIDEA gene mRNA by real time RT-PCR (Example 4); conditions: induction medium + T3 + Rosiglitazone, compounds 2 μM, day 14, FIG. 4
Method: (§1) The next day, the culture supernatant was removed by suction and, as described in the Figure, a normal medium, an adipocyte induction medium, or an adipocyte induction medium added with each compound and the like was added at 500 μL/well. […] The concentrations of the additives are as follows: • T3: 1 nM • Rosiglitazone: 1 μM • D4476: 2 μM • Pifithrin alpha [p53 inhibitor]: 5 μM • SB431542: 2 μM • ALK5 Inhibitor II: 2 μM. The culture medium was substituted by a fresh one every 3 4 days and the cells were cultured up to day 14.

[3] = tested on: human dermal fibroblasts (HDFs); experiment: AdipoQ gene mRNA by real time RT-PCR (Example 6); conditions: induction medium + T3 + Rosiglitazone, D4476, SB431542, ALK5 Inhibitor II 2 μM, PD0325901 1 μM, day 14, FIG. 6
Method: This was seeded in a 24-well plate at a concentration of 1×10^4 cells/well (day 0), and culturing was started at 5% CO2/95% humid air, 37° C. The next day, the culture supernatant was removed by suction and, as described in the Figure, a normal medium, an adipocyte induction medium, or an adipocyte induction medium added with each low-molecular-weight compound and the like was added at 500 μL/well. […] The concentrations of the additives are as follows: • T3: 1 nM • Rosiglitazone: 1 μM • D4476: 2 μM. • Pifithrin alpha [p53 inhibitor]: 5 μM • PD0325901: 1 μM • SB431542: 2 μM • ALK5 Inhibitor II: 2 μM. The culture medium was substituted by a fresh one every 3-4 days and the cells were cultured up to day 14.

[4] = tested on: human dermal fibroblasts (HDFs); experiment: BODIPY staining of lipid droplets (Example 7); conditions: induction medium + T3 + Rosiglitazone, compounds 2 μM, day 14, FIG. 7A, 7B
Method: as §1, with “each low-molecular-weight” for “each”, “[…]:” for “D4476:”, “SB431541:” for “Pifithrin alpha [p53 inhibitor]: 5 μM • SB431542:”, “inhibitor” for “Inhibitor”, “3-4” for “3 4”, “14. […] The cells were photographed at a magnification of 200 with a fluorescence microscope and the fluorescence intensity was measured.” for “14.”

[5] = tested on: human dermal fibroblasts (HDFs); experiment: UCP1 protein immunostaining, fluorescence intensity (Example 8); conditions: induction medium + T3 + Rosiglitazone, D4476, SB431541, ALK5 inhibitor II, FSK 2 μM, PD0325901 1 μM, day 14, FIG. 8A-C
Method: as §1, with “[…]:” for “D4476:”, “SB431541:” for “Pifithrin alpha [p53 inhibitor]: 5 μM • SB431542:”, “inhibitor” for “Inhibitor”, “II: 2 μM • PD0325901: 1 μM • Forskolin (FSK):” for “II:”, “3-4” for “3 4”, “14. […] The cells were photographed at a magnification of 200 with a fluorescence microscope and the fluorescence intensity was measured.” for “14.”

[6] = tested on: human dermal fibroblasts (HDFs); experiment: UCP1 gene mRNA, comparison of four inhibitors at 4-16 μM (Example 15); conditions: for induction efficiency into brown adipocytes (order): compound at 4, 8, 12 or 16 μM up to Day 9, UCP1 mRNA on day 14, FIG. 15; for UCP1 gene expression (conversion to brown adipocytes): compound at 4, 8, 12 or 16 μM up to Day 9, then without compound Day 9-14, FIG. 15
Method: (Day −1). In the control (Ctrl) group, the culture supernatant of the next day (Day 0) was removed by suction and the cells were cultured in a normal medium up to day 14 while substituting the medium with a fresh one once every other day. In groups other than the control (Ctrl) group, the culture supernatant was removed by suction on day 0, an adipocyte induction medium or an adipocyte induction medium added with any of ALK5 inhibitor II, SB431542, LY2157299 and D4476 at a concentration of 4 μM, 8 μM, 12 μM or 16 μM respectively was added at 1 mL/well.
Thereafter, the cells were cultured in an adipocyte induction medium free of any compound of ALK5 inhibitor II, SB431542, LY215799 and D4476 during Day 9-Day 14.

[7] = tested on: human dermal fibroblasts (HDFs); experiment: UCP1 protein immunostaining, comparison of four inhibitors (Example 16); conditions: ALK5 inhibitor II 4 μM, LY2157299 8 μM; for UCP1 protein expression by immunostaining (induction into brown adipocytes): SB431542 4 μM, D4476 4 μM up to Day 9, day 14, FIG. 16A, 16B
Method: Thereafter, the cells were cultured in an adipocyte induction medium free of any compound of ALK5 inhibitor II, SB431542, LY215799 and D4476 during Day 9-Day 14. On day 14, the medium was removed by suction from each well, and the cells were washed with PBS(−).

| Structure (SMILES) | Oil Red O staining [1] | mRNA expression of CIDEA gene (conversion to brown adipocytes) [2] | mRNA expression of AdipoQ gene (conversion to brown adipocytes) [3] | lipid droplets stained with BODIPY (conversion to brown adipocytes) [4] | UCP1 protein expression by immunostaining (conversion to brown adipocytes) [5] | induction efficiency into brown adipocytes (order) [6] | UCP1 gene expression (conversion to brown adipocytes) [6] | UCP1 protein expression by immunostaining (induction into brown adipocytes) [7] | strength of induction of UCP1 expression (order) ([7]; immunostaining day 14, FIG. 16) |
| --- | --- | --- | --- | --- | --- | --- | --- | --- | --- |
| Cc1cccc(-c2n[nH]cc2-c2ccc3ncccc3n2)n1 [ALK5 Inhibitor II, 2-(3-(6-Methylpyridin-2-yl)-1H-pyrazol-4-yl)-1,5-naphthyridine] | Remarkable Oil Red O staining | converted to brown adipocytes expressing mRNA of CIDEA gene | converted to brown adipocytes expressing mRNA of AdipoQ gene | converted to brown adipocytes having lipid droplets stained with BODIPY | converted to brown adipocytes expressing UCP1 protein | most strongly induced into brown adipocytes | converted to brown adipocytes strongly expressing UCP1 gene | induced into brown adipocytes expressing UCP1 protein | most strongly induced |
| NC(=O)c1ccc(-c2nc(-c3ccc4c(c3)OCCO4)c(-c3ccccn3)[nH]2)cc1 [D4476, 4-[4-(2,3-dihydro-1,4-benzodioxin-6-yl)-5-(2-pyridlnyl-)1H-imidazol-2-yl]-benzamide] | Remarkable Oil Red O staining | converted to brown adipocytes expressing mRNA of CIDEA gene | converted to brown adipocytes expressing mRNA of AdipoQ gene | converted to brown adipocytes having lipid droplets stained with BODIPY | converted to brown adipocytes expressing UCP1 protein | ALK5 inhibitor II>LY2157299>SB431541>D4476 | converted to brown adipocytes strongly expressing UCP1 gene | induced into brown adipocytes expressing UCP1 protein | – |
